Key:
Sa43300(H149R) = experiment: Mutant selection / mutational frequency at 6x MIC; format: cell-based, Staphylococcus aureus; settings: progenitor Sa(H149R), selection at 6x MIC
Sa43300 = experiment: Mutant selection / mutational frequency at 6x MIC; format: cell-based, Staphylococcus aureus; settings: progenitor Sa43300, selection at 6x MIC
S. aureus 43300 = settings: cited from earlier work
Sa43300(F98Y) = experiment: Mutant selection / mutational frequency at 6x MIC; format: cell-based, Staphylococcus aureus; settings: progenitor Sa(F98Y), selection at 6x MIC
Sa(H30N, F98Y) DHFR = Sa(H30N, F98Y) DHFR (Staphylococcus aureus, UniProt P0A017, F99Y/H31N); experiment: DHFR enzyme inhibition; format: biochemical; settings: Ki ratio mutant vs wild-type

| SMILES | Mutational Frequency, DHFR mutation F98Y/H149R (Sa43300(H149R)) | Mutational Frequency, DHFR mutation F98Y (Sa43300) | Mutational Frequency, DHFR mutation H30N (Sa43300) | Mutational Frequency, DHFR mutation H149R (Sa43300) | mutation frequencies (mutants F98Y and F98I in the DHFR gene) (S. aureus 43300) | Mutational Frequency, DHFR mutation F98Y/H30N (Sa43300(F98Y)) | loss in affinity for Sa (F98Y, H30N) double mutant enzyme relative to wild-type (Sa(H30N, F98Y) DHFR) [fold] |
| --- | --- | --- | --- | --- | --- | --- | --- |
| CCc1nc(N)nc(N)c1C#CC(C)c1cc(OC)cc(-c2ccncc2)c1 (centres unmarked) [Compound 1] | 1.23x10^−11 | 3.11 x 10^−11 | 4.67 x 10^−11 | 1.65 x 10^−10 | 10^−10 | 8.2 x 10^−12 |  |
| CCc1nc(N)nc(N)c1C#CC(C)c1cc2c(c(-c3ccncc3)c1)OCO2 (centres unmarked) [Compound 2] |  |  |  |  |  |  | 180 to 300 |
| CCc1nc(N)nc(N)c1C#C[C@H](C)c1cc2c(c(-c3ccncc3)c1)OCO2 [Compound 7] |  |  |  |  |  |  | 180 to 300 |

— article PMC5257293 (Journal of medicinal chemistry, 2016)
